Assays:
EGFR (d746-750) = biological target: T1, EGFR (d746-750) (Homo sapiens, UniProt P00533, DEL746-750); test: Biochemical EGFR inhibition assay (Caliper mobility shift), EGFR (d746-750); conditions: biochemical Caliper mobility shift assay, EGFR Exon 19-del enzyme; read-out: Enz EGFR Exon 19-del IC50
T1 construct: purchased SignalChem E10-122JG
Outline: (§1)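 Peptide phosphorylation by the mutant enzyme is followed at 25 °C with either 1.0 mM ATP or ATP at Km, in HEPES pH 7.5 containing 0.015% Brij-35 and 1.0% DMSO. After 10–20% substrate turnover, 35 mM EDTA ends the reaction and mobility shift quantifies product.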

EGFR L858R = biological target: T2, EGFR L858R (Homo sapiens, UniProt P00533, L858R); test: Biochemical EGFR inhibition assay (Caliper mobility shift), EGFR L858R; conditions: biochemical Caliper mobility shift assay, EGFR L858R enzyme; read-out: Enz EGFR L858R IC50
T2 construct: purchased SignalChem E10-122BG
Outline: as §1

[1] = biological target: intracellular phosphorylation of EGFR (Tyr1068) in PC-9 cells (Homo sapiens, UniProt P00533, DEL746-750); test: PC-9 pEGFR AlphaLISA assay; type: cell-based; conditions: 4 hours incubation, read-out: Phos EGFR PC9 IC50
Outline: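 PC-9 cells (EGFR del746-750) in phenol-free DMEM/10% FBS, adhered overnight, then exposed to 10-point 4-fold compound dilutions for 4 h at 37 °C. Lysates assayed for pEGFR Tyr1068 by AlphaLISA SureFire Ultra; IC50 from percent pEGFR inhibition vs log concentration.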

Sequence of intracellular phosphorylation of EGFR (Tyr1068) in PC-9 cells (P00533 with tags, fused parts or gaps DEL746-750): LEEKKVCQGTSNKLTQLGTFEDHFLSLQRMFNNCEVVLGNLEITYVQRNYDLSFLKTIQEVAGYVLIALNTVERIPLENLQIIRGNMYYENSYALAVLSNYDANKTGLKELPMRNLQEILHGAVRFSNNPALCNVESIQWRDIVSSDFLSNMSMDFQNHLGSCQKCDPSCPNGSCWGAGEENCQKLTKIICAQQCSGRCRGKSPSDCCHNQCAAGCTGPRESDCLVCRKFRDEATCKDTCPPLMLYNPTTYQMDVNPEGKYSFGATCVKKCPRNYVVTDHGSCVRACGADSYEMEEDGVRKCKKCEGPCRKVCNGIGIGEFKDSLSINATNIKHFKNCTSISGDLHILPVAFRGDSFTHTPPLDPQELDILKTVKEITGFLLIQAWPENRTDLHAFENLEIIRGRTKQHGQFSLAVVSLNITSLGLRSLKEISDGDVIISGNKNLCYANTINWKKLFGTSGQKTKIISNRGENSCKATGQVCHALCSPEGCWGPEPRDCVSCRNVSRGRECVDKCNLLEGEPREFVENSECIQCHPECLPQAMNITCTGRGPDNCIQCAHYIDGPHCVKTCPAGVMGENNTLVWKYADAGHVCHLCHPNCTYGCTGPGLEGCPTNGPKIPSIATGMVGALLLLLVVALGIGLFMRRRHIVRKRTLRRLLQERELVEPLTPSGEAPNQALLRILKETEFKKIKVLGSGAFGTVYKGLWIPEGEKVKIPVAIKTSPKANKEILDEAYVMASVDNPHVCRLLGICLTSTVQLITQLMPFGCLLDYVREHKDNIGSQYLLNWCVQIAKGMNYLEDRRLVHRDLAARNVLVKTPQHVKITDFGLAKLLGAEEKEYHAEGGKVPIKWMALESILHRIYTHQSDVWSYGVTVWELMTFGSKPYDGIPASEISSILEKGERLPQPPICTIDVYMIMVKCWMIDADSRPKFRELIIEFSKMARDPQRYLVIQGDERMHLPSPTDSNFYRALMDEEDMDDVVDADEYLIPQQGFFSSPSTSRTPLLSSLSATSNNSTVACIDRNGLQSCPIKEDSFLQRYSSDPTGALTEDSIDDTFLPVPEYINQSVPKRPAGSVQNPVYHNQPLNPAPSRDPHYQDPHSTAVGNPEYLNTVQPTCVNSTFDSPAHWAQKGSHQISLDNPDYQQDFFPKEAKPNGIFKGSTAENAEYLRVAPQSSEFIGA
T2 sequence (P00533 25-1210 L858R): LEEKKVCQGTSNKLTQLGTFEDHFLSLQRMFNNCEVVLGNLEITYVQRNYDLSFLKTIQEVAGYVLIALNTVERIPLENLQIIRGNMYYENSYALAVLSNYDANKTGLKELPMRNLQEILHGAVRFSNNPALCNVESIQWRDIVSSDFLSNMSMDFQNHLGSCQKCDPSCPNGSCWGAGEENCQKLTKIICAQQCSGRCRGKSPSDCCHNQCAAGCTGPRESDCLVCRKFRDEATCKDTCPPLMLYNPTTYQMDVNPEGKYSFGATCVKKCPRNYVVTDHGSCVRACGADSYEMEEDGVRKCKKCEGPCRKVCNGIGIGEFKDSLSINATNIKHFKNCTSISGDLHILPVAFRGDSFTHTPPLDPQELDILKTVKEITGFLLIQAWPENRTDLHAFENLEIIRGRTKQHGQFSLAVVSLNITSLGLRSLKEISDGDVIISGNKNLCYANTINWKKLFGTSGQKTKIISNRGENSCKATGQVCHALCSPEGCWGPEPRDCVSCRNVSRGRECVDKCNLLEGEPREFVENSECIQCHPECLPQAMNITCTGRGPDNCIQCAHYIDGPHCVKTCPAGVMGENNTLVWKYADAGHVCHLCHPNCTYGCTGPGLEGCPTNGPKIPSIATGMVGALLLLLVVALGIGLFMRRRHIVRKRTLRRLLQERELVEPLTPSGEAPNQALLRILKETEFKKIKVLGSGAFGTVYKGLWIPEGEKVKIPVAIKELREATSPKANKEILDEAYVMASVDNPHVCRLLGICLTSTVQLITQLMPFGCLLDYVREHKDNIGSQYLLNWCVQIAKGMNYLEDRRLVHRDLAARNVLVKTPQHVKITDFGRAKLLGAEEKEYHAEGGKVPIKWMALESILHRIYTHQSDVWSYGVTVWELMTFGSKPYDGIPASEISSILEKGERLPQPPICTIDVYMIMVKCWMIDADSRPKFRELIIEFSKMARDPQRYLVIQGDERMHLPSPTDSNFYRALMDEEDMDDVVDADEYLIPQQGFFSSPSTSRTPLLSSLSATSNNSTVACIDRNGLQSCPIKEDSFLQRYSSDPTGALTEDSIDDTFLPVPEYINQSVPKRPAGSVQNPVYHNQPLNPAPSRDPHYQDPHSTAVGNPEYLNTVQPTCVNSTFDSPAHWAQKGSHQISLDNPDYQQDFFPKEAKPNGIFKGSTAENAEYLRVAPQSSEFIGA
T1 sequence (P00533 with tags, fused parts or gaps DEL746-750 limits assumed): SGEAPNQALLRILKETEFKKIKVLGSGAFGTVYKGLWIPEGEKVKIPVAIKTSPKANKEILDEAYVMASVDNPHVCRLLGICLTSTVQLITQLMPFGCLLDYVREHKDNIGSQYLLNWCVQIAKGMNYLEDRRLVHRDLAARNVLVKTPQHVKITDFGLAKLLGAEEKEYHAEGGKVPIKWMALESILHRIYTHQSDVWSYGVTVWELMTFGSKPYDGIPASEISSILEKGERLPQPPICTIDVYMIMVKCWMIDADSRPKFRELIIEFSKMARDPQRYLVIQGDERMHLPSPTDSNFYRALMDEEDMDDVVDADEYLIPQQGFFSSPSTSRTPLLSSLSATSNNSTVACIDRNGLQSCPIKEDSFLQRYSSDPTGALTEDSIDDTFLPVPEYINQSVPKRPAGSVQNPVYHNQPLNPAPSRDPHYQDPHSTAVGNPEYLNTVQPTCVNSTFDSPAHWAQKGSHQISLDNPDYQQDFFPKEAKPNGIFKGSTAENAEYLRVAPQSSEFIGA

CN1CCC(COc2cc(-c3cnn(C)c3)cc3ncnc(Nc4ccc5ncsc5c4)c23)C1=O (stereo not drawn) [Example 61, 3-(((4-(benzo[d]thiazol-6-ylamino)-7-(1-methyl-1H-pyrazol-4-yl)quinazolin-5-yl)oxy)methyl)-1-methylpyrrolidin-2-one]
IC50 (EGFR (d746-750)): ≤ 10 nM | IC50 (EGFR L858R): ≤ 10 nM | IC50 [1]: 10.1 to 50 nM

C[C@@H](Oc1cc(-c2cnn(C)c2)cc2ncnc(Nc3ccc4ncsc4c3)c12)C(F)(F)F [Example 67, (R)-N-(7-(1-methyl-1H-pyrazol-4-yl)-5-((1,1,1-trifluoropropan-2-yl)oxy)quinazolin-4-yl)benzo[d]thiazol-6-amine]
IC50 (EGFR (d746-750)): ≤ 10 nM | IC50 (EGFR L858R): ≤ 10 nM | IC50 [1]: 10.1 to 50 nM

COc1nn(C)cc1-c1cc(O[C@H]2COC[C@@H]2O)c2c(Nc3ccc4ncsc4c3)ncnc2c1 (single isomer, unassigned) [Example A48]
IC50 (EGFR (d746-750)): ≤ 10 nM | IC50 (EGFR L858R): ≤ 10 nM | IC50 [1]: ≤ 10 nM

Cn1cc(-c2cc3ncnc(Nc4ccc5ncsc5c4F)c3cc2OC2CCOC2)cn1 (stereo not drawn) [Example 261, 7-fluoro-N-(7-(1-methyl-1H-pyrazol-4-yl)-6-((tetrahydrofuran-3-yl)oxy)quinazolin-4-yl)benzo[d]thiazol-6-amine]
IC50 (EGFR (d746-750)): ≤ 10 nM | IC50 (EGFR L858R): ≤ 10 nM | IC50 [1]: ≤ 10 nM

Cc1ccnn1-c1cc(OC2CCOCC2)c2c(Nc3ccc4ncsc4c3)ncnc2c1 [Example 135, N-(7-(5-methyl-1H-pyrazol-1-yl)-5-((tetrahydro-2H-pyran-4-yl)oxy)quinazolin-4-yl)benzo[d]thiazol-6-amine]
IC50 (EGFR (d746-750)): 10.1 to 50 nM | IC50 (EGFR L858R): 10.1 to 50 nM | IC50 [1]: > 50.1 nM

COc1nn(C)cc1-c1cc(O[C@@H](C)C(=O)N(C)C)c2c(Nc3ccc4ncsc4c3F)ncnc2c1 (single isomer, unassigned) [Example 287]
IC50 (EGFR (d746-750)): ≤ 10 nM | IC50 (EGFR L858R): ≤ 10 nM | IC50 [1]: ≤ 10 nM

CN1C[C@H](Oc2cc(-c3cnn(C)c3)cc3ncnc(Nc4ccc5ncsc5c4)c23)[C@@H](F)C1 [Example 383, N-(5-(((3S,4S)-4-fluoro-1-methylpyrrolidin-3-yl)oxy)-7-(1-methyl-1H-pyrazol-4-yl)quinazolin-4-yl)benzo[d]thiazol-6-amine]
IC50 (EGFR (d746-750)): ≤ 10 nM | IC50 (EGFR L858R): ≤ 10 nM | IC50 [1]: 10.1 to 50 nM

COc1nn(C)cc1-c1cc(O[C@H]2CCN(C)C[C@H]2F)c2c(Nc3ccc4ncsc4c3)ncnc2c1 [Example 364, N-(5-(((3R,4S)-3-fluoro-1-methylpiperidin-4-yl)oxy)-7-(3-methoxy-1-methyl-1H-pyrazol-4-yl)quinazolin-4-yl)benzo[d]thiazol-6-amine]
IC50 (EGFR (d746-750)): ≤ 10 nM | IC50 (EGFR L858R): ≤ 10 nM | IC50 [1]: ≤ 10 nM

C[C@@H](Oc1cc(-c2cnn(C(C)(C)CO)c2)cc2ncnc(Nc3ccc4ncsc4c3)c12)C1COC1 (single isomer, unassigned) [Example 291]
IC50 (EGFR (d746-750)): ≤ 10 nM | IC50 (EGFR L858R): ≤ 10 nM | IC50 [1]: ≤ 10 nM

C[C@@H]1OC[C@@H]1Oc1cc(-c2cnn(C)c2)cc2ncnc(Nc3ccc4ncsc4c3)c12 (racemic) [Example 9, cis-N-(7-(1-methyl-1H-pyrazol-4-yl)-5-((-2-methyloxetan-3-yl)oxy)quinazolin-4-yl)benzo[d]thiazol-6-amine]
IC50 (EGFR (d746-750)): ≤ 10 nM | IC50 (EGFR L858R): ≤ 10 nM | IC50 [1]: 10.1 to 50 nM

COC[C@H](C)Oc1cc(N2CCN(C)CC2)cc2ncnc(Nc3ccc4ncsc4c3)c12 (single isomer, unassigned) [Example 205]
IC50 (EGFR (d746-750)): ≤ 10 nM | IC50 (EGFR L858R): ≤ 10 nM | IC50 [1]: 10.1 to 50 nM

COC[C@@H](C)Oc1cc(N2CCN(C)C[C@H]2C)cc2ncnc(Nc3ccc4ncsc4c3)c12 (single isomer, unassigned) [Example 211]
IC50 (EGFR (d746-750)): 10.1 to 50 nM | IC50 (EGFR L858R): > 50.1 nM | IC50 [1]: > 50.1 nM

Cn1cc(-c2cc(OC3CCN(CCO)CC3)c3c(Nc4ccc5ncsc5c4)ncnc3c2)cn1 [Example 312, 2-(4-((4-(benzo[d]thiazol-6-ylamino)-7-(1-methyl-1H-pyrazol-4-yl)quinazolin-5-yl)oxy)piperidin-1-yl)ethan-1-ol]
IC50 (EGFR (d746-750)): ≤ 10 nM | IC50 (EGFR L858R): ≤ 10 nM | IC50 [1]: 10.1 to 50 nM

COc1cc2ncnc(Nc3ccc4ncsc4c3)c2cc1-c1cnn([C@H]2CCNC[C@@H]2F)c1 (racemic) [Example 168, trans-N-(6-(1-((3S,4S)-3-fluoropiperidin-4-yl)-1H-pyrazol-4-yl)-7-methoxyquinazolin-4-yl)benzo[d]thiazol-6-amine]
IC50 (EGFR (d746-750)): ≤ 10 nM | IC50 (EGFR L858R): ≤ 10 nM | IC50 [1]: 10.1 to 50 nM

CN1CC[C@@H](Nc2cc3c(Nc4ccc5ncsc5c4)ncnc3cc2-c2ccn(C)n2)[C@H](F)C1 (single isomer, unassigned) [Example 327]
IC50 (EGFR (d746-750)): ≤ 10 nM | IC50 (EGFR L858R): ≤ 10 nM | IC50 [1]: ≤ 10 nM

Cn1cc(-c2cc(O[C@@H]3CNC[C@H](F)C3)c3c(Nc4ccc5ncsc5c4)ncnc3c2)cn1 (single isomer, unassigned) [Example 335]
IC50 (EGFR (d746-750)): ≤ 10 nM | IC50 (EGFR L858R): ≤ 10 nM | IC50 [1]: ≤ 10 nM

CO[C@@H]1CCN(C)C[C@H]1Oc1cc(-c2cnn(C)c2)cc2ncnc(Nc3ccc4ncsc4c3)c12 (single isomer, unassigned) [Example A40]
IC50 (EGFR (d746-750)): ≤ 10 nM | IC50 (EGFR L858R): ≤ 10 nM | IC50 [1]: 10.1 to 50 nM

Cn1cc(-c2cc(O[C@H]3CNC[C@H](F)C3)c3c(Nc4ccc5ncsc5c4)ncnc3c2)cn1 (racemic) [Example 331, trans-N-(5-(((3R,5R)-5-fluoropiperidin-3-yl)oxy)-7-(1-methyl-1H-pyrazol-4-yl)quinazolin-4-yl)benzo[d]thiazol-6-amine and N-(5-(((3S,5S)-5-fluoropiperidin-3-yl)oxy)-7-(1-methyl-1H-pyrazol-4-yl)quinazolin-4-yl)benzo[d]thiazol-6-amine]
IC50 (EGFR (d746-750)): ≤ 10 nM | IC50 (EGFR L858R): ≤ 10 nM | IC50 [1]: ≤ 10 nM

C[C@H](CN(C)C)Oc1cc(N2CC[C@@H](C(C)(C)O)C2)cc2ncnc(Nc3ccc4ncsc4c3)c12 (single isomer, unassigned) [Example 155]
IC50 (EGFR (d746-750)): ≤ 10 nM | IC50 (EGFR L858R): ≤ 10 nM | IC50 [1]: ≤ 10 nM

C[C@@H](Oc1cc(-c2cnn(C)c2)cc2ncnc(Nc3ccc4ncsc4c3F)c12)C1CCOCC1 (single isomer, unassigned) [Example 110]
IC50 (EGFR (d746-750)): ≤ 10 nM | IC50 (EGFR L858R): ≤ 10 nM | IC50 [1]: 10.1 to 50 nM

C[C@@H]1CN(C)CCN1C(=O)Nc1cc2c(Nc3ccc4ncsc4c3)ncnc2cc1-c1ccn(C)n1 [Example 255, (R)-N-(4-(benzo[d]thiazol-6-ylamino)-7-(1-methyl-1H-pyrazol-3-yl)quinazolin-6-yl)-2,4-dimethylpiperazine-1-carboxamide]
IC50 (EGFR (d746-750)): ≤ 10 nM | IC50 (EGFR L858R): ≤ 10 nM | IC50 [1]: ≤ 10 nM

COc1nn(C)cc1-c1cc(O[C@H]2CCCN(C)C2)c2c(Nc3ccc4ncsc4c3)ncnc2c1 [Example 12, (S)-N-(7-(3-methoxy-1-methyl-1H-pyrazol-4-yl)-5-((1-methylpiperidin-3-yl)oxy)quinazolin-4-yl)benzo[d]thiazol-6-amine]
IC50 (EGFR (d746-750)): ≤ 10 nM | IC50 (EGFR L858R): ≤ 10 nM | IC50 [1]: ≤ 10 nM

CCN1CCC(Oc2cc(-c3cnn(C)c3)cc3ncnc(Nc4ccc5ncsc5c4)c23)CC1 [Example 309, N-(5-((1-ethylpiperidin-4-yl)oxy)-7-(1-methyl-1H-pyrazol-4-yl)quinazolin-4-yl)benzo[d]thiazol-6-amine]
IC50 (EGFR (d746-750)): ≤ 10 nM | IC50 (EGFR L858R): ≤ 10 nM | IC50 [1]: ≤ 10 nM

Source: patent US20260207602A1, “EGFR INHIBITORS” (Blueprint Medicines Corporation, priority 2022, published 2026)
